Key:
HES2 cells = experiment: Clonal proliferation assay, HES2 cells in MEF-CM; type: cell-based, human; conditions: ID-8 at 0.5 μM; single cells on Matrigel in MEF-CM; control ~0.6%
Protocol: The clonal proliferation assay was described previously. Briefly, the hES cells in feeder-free culture were dissociated completely with 0.05% trypsin-EDTA.(Invitrogen), and are seeded at 10^4 cells/well in Matrigel-coated 6-well culture plates and cultured in MEF-conditioned medium. Various concentration of Wnt3a (purified in our laboratory or purchased from Peprotech), IQ-1, ID-8 and/or ICG-001 (all three chemicals were synthesized in our laboratory), were supplemented into the culture media at the onset of seeding, then continuously until the end of culturing. For all assays, the cell and colony morphology were examined under microscope, and the replating efficiency was examined by counting the number of colonies after 7 days of culture.
For quantitative PCR analysis, total RNA was isolated from hESCs cultured in feeder-free condition with or without Wnt3a and Id-8 using RNeasy micro kit (Qiagen). RT was performed with Omniscript (Qiagen) and quantitative RT-PCR was then performed, using each gene-specific primer/probe mix (TaqMan Gene Expression Assays), TaqMan 2× Master Mix, and ABI PRISM 7900 Sequence Detection system (Applied Biosystems, CA) according manufacture's protocol. The PCR data was analyzed by delta/delta OT method and normalized with PPIA expression.
The hESC colonies were fixed with 4% paraformaldehyde, and alkaline phosphatase (ALP) activity was determined with a Vector Blue Alkaline Phosphatase Substrate Kit (Vector Laboratories, CA). Immunostaining was carried out with the following primary antibodies: TRA-1-60 and TRA-1-80 (Santa Cruz Biotechnology, CA), anti-stage specific embryonic antigen (SSEA)-3 and -4 (Developmental Studies Hybridoma Bank at the University of Iowa), anti-OCT-3 (clone C-10, Santa Cruz Biotechnology, CA), or goat anti-Nanog (R&D systems, MN). Then, samples were incubated with Alexa Fluor 488- or 594-conjugated (Molecular Probes, NY), then detected with indirect immunofluorscence microscopy.
The effects of canonical Wnt ligand, Wnt3a and several small molecule Wnt signaling modulators in a clonal proliferation assay were investigated first (9) (FIG. 3A). When HES2 cells (2) were dissociated into single cells and seeded on Matrigel-coated plates in mouse embryonic fibroblast-conditioned medium (MEF-CM)(20), the colony forming efficiency was ˜0.6% (replating efficiency: colony number/seeded cell number). Supplementation with Wnt3a enhanced colony formation (˜1% at 100 ng/ml). The colonies were larger and consisted of more cells. […] ID-8, which was identified in the same screen as IQ-1 (21), also enhances the β-catenin/CBP association and increased hESC survival (˜1.1% at 0.5 μM). […] To examine the scope of this effect in hESC, clonal proliferation assays were performed with the additional hESC lines, HES3 (2) and H9 (1) (FIG. 3H).

DYRK4 = biological target: T1, DYRK4 (Homo sapiens, UniProt Q9NR20); experiment: ID-8 pull-down, western blotting with DYRK family antibodies; type: binding; conditions: western blotting of precipitated proteins
T1 construct: endogenous in cells
T1 sequence (Q9NR20 1-520): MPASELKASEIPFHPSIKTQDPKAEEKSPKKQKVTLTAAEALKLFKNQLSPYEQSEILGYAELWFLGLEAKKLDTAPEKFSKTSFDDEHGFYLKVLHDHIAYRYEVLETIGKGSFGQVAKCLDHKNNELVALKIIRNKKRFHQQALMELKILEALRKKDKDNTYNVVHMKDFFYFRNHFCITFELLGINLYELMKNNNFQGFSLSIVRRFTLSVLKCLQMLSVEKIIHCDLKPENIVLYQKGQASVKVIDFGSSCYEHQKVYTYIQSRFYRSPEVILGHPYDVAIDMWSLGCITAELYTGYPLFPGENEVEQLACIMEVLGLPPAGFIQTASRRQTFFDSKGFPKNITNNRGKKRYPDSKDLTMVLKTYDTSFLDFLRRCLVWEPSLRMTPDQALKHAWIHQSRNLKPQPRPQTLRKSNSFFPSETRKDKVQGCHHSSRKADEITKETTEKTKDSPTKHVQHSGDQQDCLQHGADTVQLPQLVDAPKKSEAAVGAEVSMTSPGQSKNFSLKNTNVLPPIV
Protocol: The cells were washed twice with 5 mL of ice-old PBS and scraped using 1 mL of PBS containing protease inhibitor cocktail (Calbiochem 539137). The cells were collected by centrifugation and the cell pellet was frozen and stocked with liquid nitrogen. Total 2 g of cell pellet was thawed on ice and then suspended in 20 mL of chilled M-Per (Pierce 78501) buffer containing 1 mM DTT and the protease inhibitor cocktail. The cell suspension was mixed and lysed on a nutator (BD Diagnostics) for 30 minutes at 4° C. The lysate was then centrifuged at 10,000 rpm for 30 minutes at 4° C., and the supernatant was divided into two equal aliquots in 50 mL centrifuge tubes. […]
After pre-treatment with free competitor ID-8 or DMSO control, the streptayidin-sepharose bound with biotinylated ID-8 was applied on the lysates. […] The specific bands lost by competitor free ID-8 was analyzed by LC/MS (LTQ-XL, Thermo Scientific).
The elution was also analyzed by or western blotting with specific antibodies against DYRK1a (Cell Signaling 2771), DYRK2 (Abeam ab37912), DYRK3 (Santa Cruz sc-66868), DYRK4 (Abeam ab37911), or HIP2K (Santa Cruz sc-100383).
ID-8 (FIG. 4A) can enhance β-catenin/CBP-mediated transcription, however, its direct molecular target(s) remained unidentified. […] To confirm this, the inventors designed miRNA to target the DYRK family and evaluated them after transfection by immunoblotting (FIG. 4D-E). […]

For `COc1ccc(-n2c(C)c([N+](=O)[O-])c3ccc(O)cc32)cc1` [ID-8], the “replating efficiency (colony number/seeded cell number), hESC survival” value (HES2 cells) was about 1.1% and the “DYRK4 in proteins precipitated with biotinylated ID-8” value (DYRK4) was “identified not only DYRK2 but also DYRK4”.
